What was measured:
Assay in all cases: relative viability (nuclei count vs DMSO), 5 days (fraction); higher = more cells survive
Avagacestat + Olaparib = compound: NC(=O)[C@@H](CCC(F)(F)F)N(Cc1ccc(-c2ncon2)cc1F)S(=O)(=O)c1ccc(Cl)cc1 [Avagacestat] + O=C(c1cc(Cc2n[nH]c(=O)c3ccccc23)ccc1F)N1CCN(C(=O)C2CC2)CC1 [Olaparib] (partner 8 µM)
Summary of the method: (§1)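 Lung cancer cell lines in 1536-well plates were dosed by pin tool the day after seeding, either with one drug alone or with a fixed anchor-drug dose plus five library-drug doses (not always all listed) in √10 steps. After 5 days, cells were fixed and their nuclei stained in one step (final 0.05% Triton X-100, 1% formaldehyde, 1 ug/ml Hoechst), then counted on 4× images. Relative viability is the nuclei count in treated wells divided by that in vehicle wells. Values are medians of duplicate plates.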

Avagacestat + Decitabine = compound: NC(=O)[C@@H](CCC(F)(F)F)N(Cc1ccc(-c2ncon2)cc1F)S(=O)(=O)c1ccc(Cl)cc1 [Avagacestat] + Nc1ncn([C@H]2C[C@H](O)[C@@H](CO)O2)c(=O)n1 [Decitabine] (partner 2 µM)
Summary of the method: as §1

Avagacestat + Lapatinib = compound: NC(=O)[C@@H](CCC(F)(F)F)N(Cc1ccc(-c2ncon2)cc1F)S(=O)(=O)c1ccc(Cl)cc1 [Avagacestat] + CS(=O)(=O)CCNCc1ccc(-c2ccc3ncnc(Nc4ccc(OCc5cccc(F)c5)c(Cl)c4)c3c2)o1 [Lapatinib] (partner 2 µM)
Summary of the method: as §1

Avagacestat + AZD7762 = compound: NC(=O)[C@@H](CCC(F)(F)F)N(Cc1ccc(-c2ncon2)cc1F)S(=O)(=O)c1ccc(Cl)cc1 [Avagacestat] + NC(=O)Nc1cc(-c2cccc(F)c2)sc1C(=O)N[C@H]1CCCNC1 [AZD7762] (partner 0.2 µM)
Summary of the method: as §1

Cell Line	relative viability (Avagacestat + Olaparib; first compound 0.08 µM)	relative viability (Avagacestat + Olaparib; first compound 0.253 µM)	relative viability (Avagacestat + Olaparib; first compound 0.8 µM)	relative viability (Avagacestat + Olaparib; first compound 2.53 µM)	relative viability (Avagacestat + Olaparib; first compound 8 µM)	relative viability (Avagacestat + Decitabine; first compound 0.08 µM)	relative viability (Avagacestat + Decitabine; first compound 0.253 µM)	relative viability (Avagacestat + Decitabine; first compound 0.8 µM)	relative viability (Avagacestat + Decitabine; first compound 2.53 µM)	relative viability (Avagacestat + Decitabine; first compound 8 µM)	relative viability (Avagacestat + Lapatinib; first compound 0.08 µM)	relative viability (Avagacestat + Lapatinib; first compound 0.253 µM)	relative viability (Avagacestat + Lapatinib; first compound 0.8 µM)	relative viability (Avagacestat + Lapatinib; first compound 2.53 µM)	relative viability (Avagacestat + Lapatinib; first compound 8 µM)	relative viability (Avagacestat + AZD7762; first compound 0.08 µM)	relative viability (Avagacestat + AZD7762; first compound 0.253 µM)	relative viability (Avagacestat + AZD7762; first compound 0.8 µM)	relative viability (Avagacestat + AZD7762; first compound 2.53 µM)	relative viability (Avagacestat + AZD7762; first compound 8 µM)
201T	0.925	0.812	0.871	0.79	0.737	0.861	0.885	0.888	0.801	0.767	1.04	1.06	1.12	0.995	1.01	0.65	0.712	0.607	0.56	0.587
A-427	0.832	0.778	0.83	0.684	0.751	0.549	0.583	0.565	0.619	0.601	1.03	1.28	1.12	1.07	1.06	0.752	0.753	0.703	0.619	0.68
ABC-1	0.904	0.512	0.836	0.776	0.757	1.12	1.26	1.07	1.17	1.24	1.23	1.32	1.14	0.497	1.15	0.864	1.02	0.895	0.94	0.664
BEN	1.12	1.24	1.05	0.838	1.05	0.734	0.712	0.824	0.732	0.685	0.886	0.768	0.685	0.592	0.585	0.706	0.676	0.744	0.79	0.644
CAL-12T	0.73	0.715	0.773	0.782	0.83	–	–	–	–	–	0.836	0.859	0.833	0.747	0.699	0.703	0.703	0.782	0.61	0.569
COR-L23	0.326	0.3	0.339	0.308	0.284	0.519	0.406	0.434	0.399	0.39	1.26	1.1	1.3	0.95	0.4	–	–	–	–	–
COR-L 105	0.724	0.664	0.845	0.601	0.565	0.665	0.734	0.642	0.595	0.558	0.345	0.352	0.341	0.345	0.348	–	–	–	–	–
Calu-6	0.7	0.862	0.722	0.609	0.585	–	–	–	–	–	1.41	1.41	1.26	1.47	1.03	–	–	–	–	–
ChaGo-K-1	0.431	0.435	0.394	0.437	0.394	0.558	0.526	0.492	0.516	0.49	–	–	–	–	–	0.896	0.855	0.818	0.794	0.733
EKVX	1.04	0.926	0.918	0.73	0.769	0.391	0.299	0.378	0.354	0.36	0.227	0.208	0.226	0.186	0.184	0.699	0.779	0.818	0.633	0.624
EMC-BAC-2	0.542	0.626	0.623	0.548	0.616	1.1	1.06	1.09	1.07	1.07	0.978	0.956	1.02	0.954	0.841	1.23	1.33	1.28	0.976	1.21
EPLC-272H	0.939	1.04	0.905	0.783	0.635	0.421	0.435	0.4	0.322	0.352	1.1	0.963	0.883	1.15	0.997	0.268	0.233	0.244	0.169	0.156
H3255	0.626	0.663	0.609	0.621	0.572	0.619	0.731	0.678	0.591	0.542	0.262	0.259	0.3	0.244	0.276	1.02	0.988	1.22	0.928	0.775
HARA	0.852	0.958	0.869	0.501	0.834	0.4	0.377	0.621	0.435	0.448	0.628	0.692	0.526	0.624	0.63	0.303	0.276	0.332	0.24	0.184
IA-LM	1.33	1.37	1.15	1.06	1.05	–	–	–	–	–	1.8	1.39	1.38	1	1.07	–	–	–	–	–
